According to patent US12479847B2 (DANA-FARBER CANCER INSTITUTE, INC., priority 2019, dated 2025):

Legend:
Test in all cases: KINOMEscan (ScanMAX) kinase profiling
Format in all cases: binding
[1] = target: T1, panel of 468 kinases (Homo sapiens, UniProt Q07002); settings: PCTK3; 1 μM; read-out: % control
T1 construct: purchased KINOMEscan (ScanMAX) service

[2] = target: T2, panel of 468 kinases (Homo sapiens, UniProt P52564); settings: MEK6; 1 μM; read-out: % control
T2 construct: purchased KINOMEscan (ScanMAX) service
T2 sequence (P52564 1-334): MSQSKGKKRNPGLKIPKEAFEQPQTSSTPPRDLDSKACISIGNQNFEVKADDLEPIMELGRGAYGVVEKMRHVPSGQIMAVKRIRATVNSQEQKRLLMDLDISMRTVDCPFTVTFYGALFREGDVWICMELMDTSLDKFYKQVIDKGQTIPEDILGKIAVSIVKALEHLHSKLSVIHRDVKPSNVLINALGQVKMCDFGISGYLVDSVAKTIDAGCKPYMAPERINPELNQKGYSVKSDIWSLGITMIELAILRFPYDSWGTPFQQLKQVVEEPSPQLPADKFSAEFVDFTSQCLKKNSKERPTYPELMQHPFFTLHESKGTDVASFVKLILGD

[3] = target: T3, panel of 468 kinases (Homo sapiens, UniProt Q00536); settings: PCTK1; 1 μM; read-out: % control
T3 construct: purchased KINOMEscan (ScanMAX) service

[4] = target: T4, panel of 468 kinases (Homo sapiens, UniProt Q15831); settings: LKB1; 1 μM; read-out: % control
T4 construct: purchased KINOMEscan (ScanMAX) service
T4 sequence (Q15831 1-433): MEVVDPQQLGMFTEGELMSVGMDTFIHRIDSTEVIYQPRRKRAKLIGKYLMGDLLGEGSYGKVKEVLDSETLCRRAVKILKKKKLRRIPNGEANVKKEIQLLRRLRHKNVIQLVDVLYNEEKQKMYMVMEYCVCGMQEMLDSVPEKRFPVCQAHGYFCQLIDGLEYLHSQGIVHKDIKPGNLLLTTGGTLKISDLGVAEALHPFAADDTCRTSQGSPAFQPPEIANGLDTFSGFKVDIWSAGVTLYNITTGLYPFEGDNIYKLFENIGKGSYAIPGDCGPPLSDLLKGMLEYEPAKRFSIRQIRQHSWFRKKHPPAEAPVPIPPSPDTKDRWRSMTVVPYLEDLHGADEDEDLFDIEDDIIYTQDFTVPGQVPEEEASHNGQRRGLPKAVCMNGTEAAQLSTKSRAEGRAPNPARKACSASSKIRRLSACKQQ

[5] = target: T5, panel of 468 kinases (Homo sapiens, UniProt Q99558); settings: NIK; 1 μM; read-out: % control
T5 construct: purchased KINOMEscan (ScanMAX) service

[6] = target: T6, panel of 468 kinases (Homo sapiens, UniProt P07949, V804M); settings: RET(V804M); 1 μM; read-out: % control
T6 construct: purchased KINOMEscan (ScanMAX) service

[7] = target: T7, panel of 468 kinases (Homo sapiens, UniProt Q9UEW8); settings: STK39; 1 μM; read-out: % control
T7 construct: purchased KINOMEscan (ScanMAX) service

[8] = target: T8, panel of 468 kinases (Homo sapiens, UniProt P00519, Y253F); settings: ABL1(Y253F)-phosphorylated; 1 μM; read-out: % control
T8 construct: purchased KINOMEscan (ScanMAX) service

[9] = target: T9, panel of 468 kinases (Homo sapiens, UniProt Q9Y616); settings: IRAK3; 1 μM; read-out: % control
T9 construct: purchased KINOMEscan (ScanMAX) service
T9 sequence (Q9Y616 1-596): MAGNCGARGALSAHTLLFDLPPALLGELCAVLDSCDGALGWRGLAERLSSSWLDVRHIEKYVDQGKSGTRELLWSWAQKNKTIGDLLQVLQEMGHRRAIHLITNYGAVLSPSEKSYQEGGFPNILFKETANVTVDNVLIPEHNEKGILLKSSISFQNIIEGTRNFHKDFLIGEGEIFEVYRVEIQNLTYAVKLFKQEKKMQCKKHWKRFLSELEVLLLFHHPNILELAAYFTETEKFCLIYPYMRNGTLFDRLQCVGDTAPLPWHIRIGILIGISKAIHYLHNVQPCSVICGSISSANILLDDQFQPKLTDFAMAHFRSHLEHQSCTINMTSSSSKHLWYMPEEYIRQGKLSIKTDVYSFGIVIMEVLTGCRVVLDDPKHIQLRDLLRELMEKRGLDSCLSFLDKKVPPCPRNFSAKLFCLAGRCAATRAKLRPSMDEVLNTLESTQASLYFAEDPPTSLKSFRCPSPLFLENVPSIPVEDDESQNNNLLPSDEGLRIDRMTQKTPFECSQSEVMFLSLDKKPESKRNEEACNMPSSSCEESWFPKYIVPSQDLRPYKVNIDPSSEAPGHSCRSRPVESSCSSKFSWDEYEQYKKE

[10] = target: T10, panel of 468 kinases (Homo sapiens, UniProt P04629); settings: TRKA; 1 μM; read-out: % control
T10 construct: purchased KINOMEscan (ScanMAX) service
T10 sequence (P04629 33-796): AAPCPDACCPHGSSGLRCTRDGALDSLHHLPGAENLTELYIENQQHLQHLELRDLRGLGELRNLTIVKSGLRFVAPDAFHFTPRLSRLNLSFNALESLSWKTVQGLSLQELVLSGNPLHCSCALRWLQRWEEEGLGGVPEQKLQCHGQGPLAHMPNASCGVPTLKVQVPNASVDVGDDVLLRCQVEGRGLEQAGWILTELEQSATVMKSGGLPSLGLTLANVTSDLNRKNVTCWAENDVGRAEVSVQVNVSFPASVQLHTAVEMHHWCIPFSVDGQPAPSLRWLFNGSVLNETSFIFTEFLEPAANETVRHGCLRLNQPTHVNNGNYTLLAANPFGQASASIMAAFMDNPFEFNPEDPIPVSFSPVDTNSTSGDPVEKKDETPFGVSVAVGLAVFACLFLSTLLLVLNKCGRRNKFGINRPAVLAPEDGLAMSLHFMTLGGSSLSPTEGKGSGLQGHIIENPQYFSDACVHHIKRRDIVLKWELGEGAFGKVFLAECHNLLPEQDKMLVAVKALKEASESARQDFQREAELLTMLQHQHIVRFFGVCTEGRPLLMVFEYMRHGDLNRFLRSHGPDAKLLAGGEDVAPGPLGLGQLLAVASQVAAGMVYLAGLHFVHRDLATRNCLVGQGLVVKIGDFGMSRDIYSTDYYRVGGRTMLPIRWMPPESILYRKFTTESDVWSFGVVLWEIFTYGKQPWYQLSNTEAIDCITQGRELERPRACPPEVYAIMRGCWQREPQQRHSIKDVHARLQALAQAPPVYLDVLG

T1 sequence (Q07002 whole entry): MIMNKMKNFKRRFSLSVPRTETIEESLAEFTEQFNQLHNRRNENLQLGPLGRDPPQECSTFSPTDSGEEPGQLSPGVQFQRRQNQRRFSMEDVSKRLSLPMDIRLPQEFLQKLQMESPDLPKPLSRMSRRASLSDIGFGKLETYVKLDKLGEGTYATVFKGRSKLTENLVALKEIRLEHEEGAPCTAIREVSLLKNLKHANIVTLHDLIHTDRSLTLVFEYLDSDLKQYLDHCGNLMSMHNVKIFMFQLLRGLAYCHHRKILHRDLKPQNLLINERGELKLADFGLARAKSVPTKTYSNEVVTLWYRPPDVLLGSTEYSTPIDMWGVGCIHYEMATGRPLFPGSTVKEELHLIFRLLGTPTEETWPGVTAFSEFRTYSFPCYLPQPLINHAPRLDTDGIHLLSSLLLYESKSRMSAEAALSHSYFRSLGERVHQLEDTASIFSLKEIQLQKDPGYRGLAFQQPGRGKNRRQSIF
T6 sequence (P07949 29-1114 V804M): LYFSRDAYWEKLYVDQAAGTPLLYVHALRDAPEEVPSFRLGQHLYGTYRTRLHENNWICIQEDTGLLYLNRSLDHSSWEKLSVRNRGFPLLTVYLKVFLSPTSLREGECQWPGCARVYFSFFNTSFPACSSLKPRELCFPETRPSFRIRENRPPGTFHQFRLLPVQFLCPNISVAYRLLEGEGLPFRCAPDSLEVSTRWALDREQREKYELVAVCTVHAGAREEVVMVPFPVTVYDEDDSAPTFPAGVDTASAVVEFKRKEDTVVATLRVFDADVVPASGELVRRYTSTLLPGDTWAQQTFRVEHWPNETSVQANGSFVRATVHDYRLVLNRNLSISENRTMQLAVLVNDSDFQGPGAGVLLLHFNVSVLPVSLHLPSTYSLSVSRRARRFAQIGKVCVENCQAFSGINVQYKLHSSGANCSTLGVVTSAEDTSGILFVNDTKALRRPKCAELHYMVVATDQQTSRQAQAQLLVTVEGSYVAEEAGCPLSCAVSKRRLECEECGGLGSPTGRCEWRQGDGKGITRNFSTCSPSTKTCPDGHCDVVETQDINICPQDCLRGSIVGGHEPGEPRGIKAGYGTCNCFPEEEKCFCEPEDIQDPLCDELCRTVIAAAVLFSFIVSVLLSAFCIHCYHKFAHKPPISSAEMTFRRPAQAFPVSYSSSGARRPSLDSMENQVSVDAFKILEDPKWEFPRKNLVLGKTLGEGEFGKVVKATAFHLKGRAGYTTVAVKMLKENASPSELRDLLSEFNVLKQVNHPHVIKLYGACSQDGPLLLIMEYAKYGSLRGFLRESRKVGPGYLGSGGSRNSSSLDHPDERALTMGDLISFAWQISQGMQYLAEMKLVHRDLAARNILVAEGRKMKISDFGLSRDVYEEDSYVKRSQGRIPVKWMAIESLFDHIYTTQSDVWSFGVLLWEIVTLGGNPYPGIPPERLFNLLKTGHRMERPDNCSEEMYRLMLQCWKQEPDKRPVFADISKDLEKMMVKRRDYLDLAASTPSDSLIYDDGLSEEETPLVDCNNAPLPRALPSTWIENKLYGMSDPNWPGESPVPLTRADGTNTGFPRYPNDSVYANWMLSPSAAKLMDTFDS
T5 sequence (Q99558 whole entry): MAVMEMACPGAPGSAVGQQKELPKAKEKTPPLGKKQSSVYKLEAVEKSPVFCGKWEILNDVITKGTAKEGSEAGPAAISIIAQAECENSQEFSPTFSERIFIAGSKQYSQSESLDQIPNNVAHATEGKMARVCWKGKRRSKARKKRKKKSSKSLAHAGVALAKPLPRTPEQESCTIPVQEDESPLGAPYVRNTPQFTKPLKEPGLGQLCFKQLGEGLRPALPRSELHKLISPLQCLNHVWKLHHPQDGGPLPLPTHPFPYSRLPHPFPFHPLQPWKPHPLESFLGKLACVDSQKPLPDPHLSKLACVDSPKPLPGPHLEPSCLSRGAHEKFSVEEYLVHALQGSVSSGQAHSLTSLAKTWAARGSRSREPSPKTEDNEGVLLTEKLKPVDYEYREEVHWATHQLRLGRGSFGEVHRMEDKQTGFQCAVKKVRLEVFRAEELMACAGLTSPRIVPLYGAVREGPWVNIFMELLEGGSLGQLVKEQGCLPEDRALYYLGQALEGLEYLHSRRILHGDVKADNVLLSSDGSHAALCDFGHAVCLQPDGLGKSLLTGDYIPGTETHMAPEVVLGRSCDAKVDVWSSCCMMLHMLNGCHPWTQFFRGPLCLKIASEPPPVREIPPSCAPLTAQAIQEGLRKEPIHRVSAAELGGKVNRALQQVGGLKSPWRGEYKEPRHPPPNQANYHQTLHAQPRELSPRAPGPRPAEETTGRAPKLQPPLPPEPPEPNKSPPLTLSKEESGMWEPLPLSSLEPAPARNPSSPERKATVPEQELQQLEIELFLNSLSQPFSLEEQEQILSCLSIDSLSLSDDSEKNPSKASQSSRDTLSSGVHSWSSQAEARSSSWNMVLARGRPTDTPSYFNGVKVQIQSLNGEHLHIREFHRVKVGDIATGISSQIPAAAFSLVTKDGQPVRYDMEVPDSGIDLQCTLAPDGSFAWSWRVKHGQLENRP
T3 sequence (Q00536 whole entry): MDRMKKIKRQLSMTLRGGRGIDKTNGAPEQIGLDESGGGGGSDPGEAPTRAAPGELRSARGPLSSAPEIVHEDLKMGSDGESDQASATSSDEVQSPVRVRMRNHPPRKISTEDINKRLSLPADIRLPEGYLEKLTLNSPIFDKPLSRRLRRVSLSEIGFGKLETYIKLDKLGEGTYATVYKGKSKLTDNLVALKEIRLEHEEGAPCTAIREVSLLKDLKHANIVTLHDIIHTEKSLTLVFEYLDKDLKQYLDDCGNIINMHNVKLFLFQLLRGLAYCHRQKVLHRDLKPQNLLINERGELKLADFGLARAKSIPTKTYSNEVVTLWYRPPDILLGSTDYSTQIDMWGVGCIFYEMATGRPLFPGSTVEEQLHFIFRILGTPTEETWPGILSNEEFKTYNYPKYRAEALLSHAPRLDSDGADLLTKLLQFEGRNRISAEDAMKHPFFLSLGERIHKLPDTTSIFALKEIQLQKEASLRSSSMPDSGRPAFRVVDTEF

Row | Structure (SMILES) | remaining binding at 1 µM [1] | remaining binding at 1 µM [2] | remaining binding at 1 µM [3] | remaining binding at 1 µM [4] | remaining binding at 1 µM [5] | remaining binding at 1 µM [6] | remaining binding at 1 µM [7] | remaining binding at 1 µM [8] | remaining binding at 1 µM [9] | remaining binding at 1 µM [10]
1 | CNc1nc(Nc2ccc(S(=O)(=O)N3CCC(N4CCOCC4)CC3)cc2OC)nc2[nH]cc(Cl)c12 [Compound 12, 5-chloro-N2-(2-methoxy-4-((4-morpholinopiperidin-1-yl)sulfonyl)phenyl)-N4-methyl-7H-pyrrolo[2,3-d]pyrimidine-2,4-diamine] | 100% | 96% | 64% | 100% | 9.2% | 96% | 4.8% | 51% | 100% | 100%
2 | CNc1nc(Nc2ccc(C(=O)N3CCC(N4CCOCC4)CC3)c3c2OCO3)nc2[nH]cc(Cl)c12 [Compound 75, (7-((5-chloro-4-(methylamino)-7H-pyrrolo[2,3-d]pyrimidin-2-yl)amino)benzo[d][1,3]dioxol-4-yl)(4-morpholinopiperidin-1-yl)methanone] | 100% | 10% | 60% | 100% | 0% | 33% | 5.4% | 53% | 93% | 70%
3 | CNc1nc(Nc2ccc(P3(=O)CCN(C4CCOCC4)CC3)cc2OC)nc2[nH]cc(Cl)c12 [Compound 77, 4-(4-((5-chloro-4-(methylamino)-7H-pyrrolo[2,3-d]pyrimidin-2-yl)amino)-3-methoxyphenyl)-1-(tetrahydro-2H-pyran-4-yl)-1,4-azaphosphinane 4-oxide] | 100% | 56% | 84% | 100% | 16% | 97% | 0.5% | 53% | 94% | 100%
